Assay results published in patent US10265286B2, “Sequelae of cardiopulmonary bypass-induced pulmonary injury” (Vanderbilt University, priority 2016, dated 2019).

Experiments:
[1] = Hemodynamics (mean arterial blood pressure) after intravenous citrulline in piglets; format: in vivo, Duroc swine; settings: 600 mg/kg IV
Protocol: The objective was to assess the safety of intravenous citrulline and its effect on serum arginine levels in piglets. A total of 9 Duroc swine, aged 5-21 days, with a target minimum weight of 4 kg were utilized. All piglets underwent anesthetic induction and tracheostomy. Central lines were placed in the femoral artery and femoral vein and hemodynamics monitored continuously. Citrulline (600 mg/kg IV) was administered to 5 piglets. Saline was given to control animals. Serum amino acids were drawn before and each hour after citrulline administration.

[2] = Perioperative oral citrulline supplementation in children undergoing congenital cardiac surgery; format: in vivo, human
Protocol: Initial supplementation trials utilized oral citrulline at a dose of 1.9 g/kg before cardiopulmonary bypass, immediately postoperatively and every 12 hours, continuing for 48 hours after surgery.
40 patients with one of the 5 surgical diagnoses identified above were randomized to receive 5 doses of oral citrulline (1.9 grams/kg) vs. placebo. The first dose was administered immediately prior to surgery and the second dose immediately on arrival in the Pediatric ICU after surgery followed every 12 hours×3 doses.

[3] = Randomized placebo controlled intravenous citrulline study, 77 patients (plasma citrulline target); format: in vivo, human; settings: citrulline removed by hemofiltration during CPB
Description: An intravenous citrulline study conducted was a randomized, placebo controlled, double blind study with the primary clinical outcome being length of mechanical ventilation postoperatively and secondarily the incidence of postoperative pulmonary hypertension between the 2 treatment groups (citrulline vs placebo).
A total of 77 patients were enrolled at Vanderbilt Children's Hospital. Patients were screened based on the surgical schedule. Based on this schedule, patients undergoing one of the 5 planned cardiac surgeries included in this study were screened (patients undergoing the Norwood procedure are now excluded at the recommendation of the DSMB).

[4] = Revised dosing protocol study: duration of respiratory support and cardiovascular parameters (Example 8); format: in vivo, human
Description: The study in this example was undertaken to test a revised dosing protocol designed to achieve and maintain therapeutic citrulline levels in the face of ultrafiltration and crystalloid replacement. […] The study recruited 22 patients randomized in equal numbers of 11 patients each to placebo and citrulline arms.
Early in the course of the study, it was recognized that one of the two participating centers routinely extubated all patients in the operating room immediately following cessation of cardiopulmonary bypass. This precluded use of the duration of mechanical ventilation as an endpoint. Instead, a post-hoc analysis was applied using the duration of all forms of ventilatory support as a possible endpoint. […] In contrast, contingency table analysis, shown in FIG. 16, did achieve borderline significance. Overall, the results are considered to represent a strong trend.

[5] = Phase IB study: total respiratory support; format: in vivo, human; settings: invasive and non-invasive
Description: The analysis of total respiratory support includes any invasive and non-invasive respiratory support required during the study period. The mean total duration of respiratory support in the citrulline treatment group was less than half the duration in the placebo treatment group; the difference was statistically significant (Table 11).

[6] = Phase IB study: length of time on inotropes and inotrope score; format: in vivo, human
Description: The inotrope dose should be monitored post operatively from the time of PCCU admission using the following scoring system:
• =total inotrope score See, e.g., Hoffman, et al. Circulation (2003) 107: 996-1002. A decrease in the inotrope score would be a positive postoperative outcome.
In FIG. 21, data are defined as the time between the start and end times of inotrope use. All missing or 0 total inotrope scores prior to the first measured score are set to 0 and are therefore not considered as being on inotropes. The total inotrope score is considered, which is calculated on the basis of Dopamine, Dobutamine, Milrinone, Epinephrine, Phenylephrine, and Norepinephrine. The length of time on inotropes of patients with no use of inotropes is set to 0 hours (not censored).
The length of time on IV inotropes was documented from the time of first use after surgery until completion of the study medication at 48 hours, i.e. the duration of inotrope use was maximally 48 hours in the current analysis. Patients still receiving inotropes at hour 48 after surgery were censored. The average duration of intravenous (IV) inotrope use was clearly lower in the citrulline group than in the placebo group (Table 12). However, statistical significance for the between-treatment difference was not reached.

[7] = Phase IB study: duration of ICU stay; format: in vivo, human
Protocol: Duration of ICU stay was analyzed once as the total number of postoperative hours spent in the ICU and once as the total number of postoperative hours that a patient required postoperative mechanical ventilator or continuous intravenous inotrope or vasodilator support. The latter combination of parameters represents another surrogate endpoint for ICU stay.

[8] = Phase IB study: safety (adverse events, bleeding, laboratory, hemodynamics); format: in vivo, human
Protocol: Primary safety assessments included hemodynamic monitoring to identify clinically significant hypotension using age-specific limits. Adverse event information was collected, and postoperative bleeding was recorded.
Further safety, laboratory, and clinical assessments were performed from baseline to discharge, secondary clinical variables included: postoperative mechanical ventilation, duration of total respiratory support, hemodynamic improvement, postoperative PVT by echocardiogram, serum creatinine and liver enzymes, inotrope score, duration of chest tube usage, length of intensive care unit stay, length of hospitalization and survival.

[9] = all i.v. inotropes postoperatively
[10] = total postoperative hours in ICU

NC(=O)NCCCC(N)C(=O)O (stereo not drawn) [Citrulline, 2-amino-5-(carbamoylamino)pentanoic acid]
hemodynamic instability [1]: No hemodynamic instability
Mean Arterial Blood Pressures ([1]; 1 hour post): 67.4 mmHg
Mean Arterial Blood Pressures ([1]; 2 hours post): 64.8 mmHg
Mean Arterial Blood Pressures ([1]; 3 hours post): 62.2 mmHg
Mean Arterial Blood Pressures ([1]; Pre-dose): 67.0 mmHg
Plasma citrulline levels ([2]; 5 doses of oral citrulline 1.9 grams/kg, placebo 26): 36 µmol/L
tolerability ([2]; oral 1.9 g/kg before CPB, postoperatively and every 12 hours for 48 hours): well tolerated with no evidence of significant adverse events
attainment of sustained target plasma citrulline level of 100 μmol/L [3]: did not reach the therapeutic sustained target plasma citrulline level
systolic and diastolic blood pressure versus placebo ([4]; FIG. 18A): No significant change in systolic and diastolic blood pressure
mean arterial pressure versus placebo ([4]; FIG. 18B): No significant change in the mean arterial pressure
patients with Duration of Respiratory Support ≤50 hours ([4]; contingency table, placebo 3): 7
patients with Duration of Respiratory Support >50 hours ([4]; contingency table, placebo 8): 2
inotrope scores versus placebo ([4]; particularly from 15 to 18 hours onward following ICU admission (FIG. 17)): markedly better inotrope scores
adverse effects upon hemodynamic parameters ([4]; revised dosing protocol): No adverse effects upon hemodynamic parameters were observed
Total duration of respiratory support, Diff (CI) placebo vs citrulline [5]: 50.7 (5.4, 96.0) hours
Total duration of respiratory support, Median [5]: 23.6 h
Total duration of respiratory support, Range [5]: 0.0 to 100.1 h
Total duration of respiratory support, Mean ± SD ([5]; N = 11): 31.2 ± 28.27 h
Total inotrope score, Diff (CI) placebo vs citrulline [6, 9]: 559.8 (−193.5, 1313.2)
Total inotrope score, Median [6, 9]: 650.0
Total inotrope score, Range [6, 9]: 0.0-2351.0
Total inotrope score, Mean ± SD ([6]; all i.v. inotropes postoperatively, N = 11): 602.7 ± 727.86
Length of time on i.v. inotropes, Diff (CI) placebo vs citrulline ([6]; maximally 48 hours): 12.7 (−2.6, 28.1) hours
Length of time on i.v. inotropes, Median ([6]; maximally 48 hours): 16.0 h
Length of time on i.v. inotropes, Range ([6]; maximally 48 hours): 0.0 to 47.0 h
Length of time on i.v. inotropes, Mean ± SD ([6]; maximally 48 hours, N = 11): 13.4 ± 14.78 h
Longest duration of mechanical ventilation, i.v. inotrope use, or vasodilator use, Diff (CI) placebo vs citrulline ([7]; re-intubation excluded): 17.5 (−1.2, 36.2) hours
Longest duration of mechanical ventilation, i.v. inotrope use, or vasodilator use, Mean ± SD ([7]; re-intubation excluded): 14.5 ± 13.99 h
Longest duration of mechanical ventilation, i.v. inotrope use, or vasodilator use, Median ([7]; re-intubation excluded): 15.0 h
Longest duration of mechanical ventilation, i.v. inotrope use, or vasodilator use, Range ([7]; re-intubation excluded): 0.0 to 47.0 h
Longest duration of mechanical ventilation, i.v. inotrope use, or vasodilator use, Diff (CI) placebo vs citrulline ([7]; re-intubation included): 29.9 (−11.0, 70.9) hours
Longest duration of mechanical ventilation, i.v. inotrope use, or vasodilator use, Mean ± SD ([7]; re-intubation included): 14.5 ± 13.99 h
Longest duration of mechanical ventilation, i.v. inotrope use, or vasodilator use, Median ([7]; re-intubation included): 15.0 h
Longest duration of mechanical ventilation, i.v. inotrope use, or vasodilator use, Range ([7]; re-intubation included): 0.0 to 47.0 h
Duration of PICU stay, Diff (CI) placebo vs citrulline [7, 10]: 69.14 (−49.39, 187.67) hours
Duration of PICU stay, Median [7, 10]: 28.52 h
Duration of PICU stay, Range [7, 10]: 20.8 to 72.0 h
Duration of PICU stay, Mean ± SD ([7]; total postoperative hours in ICU, N = 11): 35.94 ± 16.150 h
AE hypotension ([8]; citrulline group): 27%
AE tachypnea ([8]; citrulline group): 27%
AE hypertension ([8]; citrulline group, placebo 36%): 27%
AE pleural effusion ([8]; citrulline group, placebo 45%): 36%
patients with at least one treatment-emergent AE ([8]; citrulline group, placebo 73%): 100%
Heart rate ([8]; citrulline vs placebo): consistently higher in the placebo group than the citrulline group
AE leading to death, SAE, AE leading to discontinuation ([8]; in vivo): No AE leading to death, no SAE, and no AE leading to discontinuation
impact on oxygen saturation or systemic arterial blood pressure ([8]; in vivo): no noteworthy impact
post-operative bleeding (length and volume of chest tube drainage) versus placebo ([8]; in vivo): no difference in post-operative bleeding
BUN ([8]; stable in the placebo group, p=0.0111): increased from baseline through to Day 2
